Source: patent publication US5182280A, “Derivatives of benzimidazole and their use as antihistamines” (Laboratorios Del Dr. Esteve, S. A., priority 1990, dated 1993)

Tests used:
[1] = test system: death induced by compound 48/80; test: "In vivo" antihistaminic activity: protection from death induced by 48/80 in the rat; settings: ip, i.p. 60 min before 48/80 (0.5 mg/kg, i.v.), survival 4 h after, read-out: ED-50, protection from death induced by 48/80
Description: The antihistaminic activity was studied by determining the protection in the face of the mortality induced by the product 48/80 in the rat. This test was realized in accordance with the technique described by C. J. E. Niemegeers and cols. (Arch, int. Pharmacodyn. 234, 164-176 (1978).
The products according to the present invention are administered i.p. to rats. After 60 minutes the compound 48/80 is administered (0.5 mg/kg, i.v.). The protective activity is defined as the survival of the rats 4 hours after the i.v. injection of 48/80.
The activity of the products at several doses in order to determine the dose capable of protecting 50% of the animals (ED-50) was studied.

[2] = Sedative effect: Irwin test (passivity and ataxia); format: in vivo; settings: rats, i.p., 1, 2 and 3 hours after treatment
Description: Pas.: Passivity, sedation, prostration. Quantitative evaluation between 0 and 3. They were performed 1, 2 and 3 hours after the treatment.
Atax.: Ataxia, the alterations in coordination in locomotion were evaluated. They were evaluated between 0 and 3. They were performed 1, 2 and 3 hours after the treatment.

[3] = test system: sleep time induced by pentobarbital; test: Sedative effect: potentiation of the sleep time induced by pentobarbital; settings: for Potentiation of sleep time: 1 h before sodium pentobarbital (35 mg/kg, s.c.); for Potentiation of sleep time (in words): orally
Description: Study of the potentiation of the sleep time due to pentobarbital was carried out by following the method described by L. E. Allen and cols. […] The products studied were administered orally. […] The sleep time was compared with a group of control animals, treated only with sodium pentobarbital.

Compound: CCOCCn1c(CN2CCN(CCCCn3cncn3)CC2)nc2ccccc21 [Example 4, 1-(2-Ethoxyethyl)-2-4-[4-(1,2,4-triazol-1-yl)butyl]piperazin-1-ylmethyl benzimidazole]
- ED50 [1]: 0.036 mg/kg
- Atax. (ataxia; score 0 to 3) ([2]; 80 mg/kg): 0.5
- Pas. (passivity, sedation, prostration; score 0 to 3) ([2]; 80 mg/kg): 0.4

Compound: CCOCCn1c(CN2CCN(CCCCn3cccn3)CC2)nc2ccccc21 [Example 7, 1-(2-Ethoxyethyl)-2-4-[4-(pyrazol-1-yl)butyl]piperazin-1-ylmethyl benzimidazole]
- ED50 [1]: 0.02 mg/kg
- Atax. (ataxia; score 0 to 3) ([2]; 80 mg/kg): 0
- Pas. (passivity, sedation, prostration; score 0 to 3) ([2]; 80 mg/kg): 0
- Atax. (ataxia; score 0 to 3) ([2]; 160 mg/kg): 0.3
- Pas. (passivity, sedation, prostration; score 0 to 3) ([2]; 160 mg/kg): 0
- Potentiation of sleep time ([3]; 80 mg/kg orally): 10%
- Potentiation of sleep time ([3]; 160 mg/kg orally): 11%
- Potentiation of sleep time ([3]; 320 mg/kg orally): 22%
- Potentiation of sleep time (in words) ([3]; 320 mg/kg, maximum dose tested): does not potentiate the sleep time

Compound: CCOCCn1c(CN2CCN(CCCCn3cc(S(=O)(=O)O)cn3)CC2)nc2ccccc21 [Example 5, 1-(2-Ethoxyethyl)-2-4-[4-(4-sulfopyrazol-1-yl)butyl]piperazin-1-ylmethyl benzimidazole]
- ED50 [1]: 2.6 mg/kg
- Atax. (ataxia; score 0 to 3) ([2]; 80 mg/kg): 0.4
- Pas. (passivity, sedation, prostration; score 0 to 3) ([2]; 80 mg/kg): 0.4

Compound: CN(C)CCOC(c1ccccc1)c1ccccc1 [Difenhidramine, reference compound]
- ED50 [1]: 0.84 mg/kg
- Atax. (ataxia; score 0 to 3) ([2]; 40 mg/kg): 0.9
- Pas. (passivity, sedation, prostration; score 0 to 3) ([2]; 40 mg/kg): 0
- Potentiation of sleep time (in words) ([3]; 20 mg/kg): potentiates significantly the sleep time

Compound: CCOCCn1c(CN2CCN(CCCCn3cccc3)CC2)nc2ccccc21 [Example 8, 1-(2-Ethoxyethyl)-2-4-[4-(pyrrol-1-yl)butyl]piperazin-1-yl-methyl benzimidazole]
- ED50 [1]: 0.02 mg/kg
- Atax. (ataxia; score 0 to 3) ([2]; 80 mg/kg): 0
- Pas. (passivity, sedation, prostration; score 0 to 3) ([2]; 80 mg/kg): 0

Compound: CCOCCn1c(N2CCN(CCCCn3cc(C(=O)O)cn3)CC2)nc2ccccc21 [Example 9, 1-(2-Ethoxyethyl)-2-4-[4-(4-carboxypryazol-1-yl)butyl]piperazine-1-yl benzimidazole]
- ED50 [1]: 0.84 mg/kg
- Atax. (ataxia; score 0 to 3) ([2]; 80 mg/kg): 0
- Pas. (passivity, sedation, prostration; score 0 to 3) ([2]; 80 mg/kg): 0

Compound: CCOCCn1c(CN2CCN(CCCCn3ccnc3)CC2)nc2ccccc21 [Example 3, 1-(2-Ethoxyethyl)-2-4-[4-(imidazol-1-yl)butyl]piperazin-1-ylmethyl benzimidazole]
- ED50 [1]: 0.13 mg/kg
- Atax. (ataxia; score 0 to 3) ([2]; 80 mg/kg): 0
- Pas. (passivity, sedation, prostration; score 0 to 3) ([2]; 80 mg/kg): 0

Compound: CCOCCn1c(CN2CCN(CCCCn3cnc(Cl)c3Cl)CC2)nc2ccccc21 [Example 10]
- ED50 [1]: 0.66 mg/kg

Compound: CCOCCn1c(CN2CCN(CCCCn3cc(Br)cn3)CC2)nc2ccccc21 [Example 1, 1-(2-Ethoxyethyl)-2-4-[4--(4-bromopyrazol-1-yl)butyl]piperazin-1-ylmethyl benzimidazole]
- ED50 [1]: 0.09 mg/kg
- Atax. (ataxia; score 0 to 3) ([2]; 80 mg/kg): 1.3
- Pas. (passivity, sedation, prostration; score 0 to 3) ([2]; 80 mg/kg): 1.4

Compound: CCOCCn1c(N2CCN(CCCCn3cc(Br)cn3)CC2)nc2ccccc21 [Example 2, 1-(2-Ethoxyethyl)-2-4-[4-(4-bromopyrazol1yl)butyl]piperazinyl benzimidazole]
- ED50 [1]: 2.7 mg/kg
- Atax. (ataxia; score 0 to 3) ([2]; 40 mg/kg): 0.4
- Pas. (passivity, sedation, prostration; score 0 to 3) ([2]; 40 mg/kg): 0
- Atax. (ataxia; score 0 to 3) ([2]; 80 mg/kg): 1.3
- Pas. (passivity, sedation, prostration; score 0 to 3) ([2]; 80 mg/kg): 0.7

Compound: CCOCCn1c(CN2CCN(CCCCn3cc(C(=O)O)cn3)CC2)nc2ccccc21 [Example 6, 1-(2-Ethoxyethyl)-2-4-[4-(4-carboxypyrazol-1-yl)butyl]piperazin-1-ylmethylbenzimidazole]
- ED50 [1]: 0.064 mg/kg
- Atax. (ataxia; score 0 to 3) ([2]; 80 mg/kg): 0
- Pas. (passivity, sedation, prostration; score 0 to 3) ([2]; 80 mg/kg): 0
